Laboratory results from ChEMBL document CHEMBL1201862, “PubChem BioAssay data set” (2004).
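Assay format: 96-well plates, 48-hour exposure. The concentration for 50% growth inhibition is given as GI50.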 The source made the active and inactive calls. Cut-off read from the data, not from the text of the source: active = GI50 up to about 1.1 µM and inactive = higher.

Experiments:
Test in all cases: NCI-60 cell line screen, 48 h
SK-MEL-28 = test system: SK-MEL-28
ACHN = test system: ACHN
CCRF-CEM = test system: CCRF-CEM
DLD-1 = test system: DLD-1
EKVX = test system: EKVX
LOX IMVI = test system: LOX IMVI
UACC-257 = test system: UACC-257
TK-10 = test system: TK-10
MOLT-4 = test system: MOLT-4
K562 = test system: K562
OVCAR-4 = test system: OVCAR-4
HCC 2998 = test system: HCC 2998
NCI-H460 = test system: NCI-H460
HCT-15 = test system: HCT-15
UACC-62 = test system: UACC-62

| SMILES | GI50 (SK-MEL-28) | GI50 (ACHN) | GI50 (CCRF-CEM) | GI50 (DLD-1) | GI50 (EKVX) | GI50 (LOX IMVI) | GI50 (UACC-257) | GI50 (TK-10) | GI50 (MOLT-4) | GI50 (K562) | GI50 (OVCAR-4) | GI50 (HCC 2998) | GI50 (NCI-H460) | GI50 (HCT-15) [µM] | GI50 (UACC-62) |
| --- | --- | --- | --- | --- | --- | --- | --- | --- | --- | --- | --- | --- | --- | --- | --- |
| COc1cc(OC)c2ssc3c(OC)cc(OC)c4ssc1c2-c43 | > 100 µM (inactive) | > 100 µM (inactive) | > 100 µM (inactive) | > 100 µM (inactive) | > 100 µM (inactive) | > 100 µM (inactive) | > 100 µM (inactive) | > 100 µM (inactive) | > 100 µM (inactive) | > 100 µM (inactive) | > 100 µM (inactive) | > 100 µM (inactive) | > 100 µM (inactive) | > 100 | > 100 µM (inactive) |
| CS/C(=N\c1ccc([N+](=O)[O-])cc1C#N)NC(=O)c1ccccc1 | > 100 µM (inactive) | > 100 µM (inactive) | > 100 µM (inactive) | > 100 µM (inactive) | 94.8 µM (inactive) | 95.3 µM (inactive) | > 100 µM (inactive) | > 100 µM (inactive) | 54.2 µM (inactive) | > 100 µM (inactive) | > 100 µM (inactive) | > 100 µM (inactive) | > 100 µM (inactive) | > 100 | > 100 µM (inactive) |
| O=C(Nc1ccc(Cl)cc1Cl)C1C(=O)N(c2ccc(Cl)cc2Cl)C(=O)/C1=N\Nc1ccc([N+](=O)[O-])cc1[N+](=O)[O-] (centres undefined) | 47.8 µM (inactive) | 74.5 µM (inactive) | 23.1 µM (inactive) | 46.8 µM (inactive) | > 100 µM (inactive) |  | 29.4 µM (inactive) | > 100 µM (inactive) | 22 µM (inactive) | 14.7 µM (inactive) | 43.5 µM (inactive) | 37.6 µM (inactive) | 59.8 µM (inactive) | 9.82 | 15.8 µM (inactive) |
| O=C(Nc1ccc(Cl)cc1Cl)C1C(=O)C(=O)N(c2ccc(Cl)cc2Cl)C1=O (centres undefined) | > 100 µM (inactive) | > 100 µM (inactive) |  | > 100 µM (inactive) | > 100 µM (inactive) | > 100 µM (inactive) | > 100 µM (inactive) | > 100 µM (inactive) |  |  | > 100 µM (inactive) | > 100 µM (inactive) | > 100 µM (inactive) | > 100 | > 100 µM (inactive) |
| N#CCCN(CCC#N)C(=O)c1cccc(C(=O)N(CCC#N)CCC#N)c1 | 7.45 µM (inactive) | > 100 µM (inactive) | > 100 µM (inactive) | > 88.9 µM (inactive) | > 46.2 µM (inactive) | 16.4 µM (inactive) | > 100 µM (inactive) |  | > 100 µM (inactive) | > 100 µM (inactive) | > 100 µM (inactive) | > 85.1 µM (inactive) | > 47.5 µM (inactive) | > 100 | > 37.3 µM (inactive) |
| Clc1cccc(C2N3CCCCC3[C@@H]3c4[nH]c5ccccc5c4CCN23)c1 (some centres undefined) | 22.8 µM (inactive) | 24.2 µM (inactive) | 19.4 µM (inactive) | 30.3 µM (inactive) | 56 µM (inactive) |  | 30.5 µM (inactive) | 40.8 µM (inactive) | 23.1 µM (inactive) | 23.1 µM (inactive) | 33.5 µM (inactive) | 31.9 µM (inactive) | 22.7 µM (inactive) | 48.2 | 15.6 µM (inactive) |
| Fc1ccc(F)c(C2SCc3nc4ccccc4n32)c1 (centres undefined) |  | 98.4 µM (inactive) | 47.6 µM (inactive) | > 100 µM (inactive) | 57.9 µM (inactive) | 65.6 µM (inactive) | 41.4 µM (inactive) | 34.3 µM (inactive) | 27.2 µM (inactive) | 37.1 µM (inactive) | 95.7 µM (inactive) | > 100 µM (inactive) | 83 µM (inactive) | 71.1 | 91.6 µM (inactive) |
| CCOC(=O)/C=C1\Nc2ccccc2-n2nnnc21 | > 100 µM (inactive) | > 100 µM (inactive) | > 100 µM (inactive) | > 100 µM (inactive) | > 100 µM (inactive) | > 100 µM (inactive) | > 100 µM (inactive) | > 100 µM (inactive) | > 100 µM (inactive) | > 100 µM (inactive) | > 100 µM (inactive) | > 100 µM (inactive) | > 100 µM (inactive) | > 100 | > 100 µM (inactive) |
| Cc1cc(C)nc(NS(=O)(=O)c2ccc(NC(=O)c3cccc4c(Nc5ccc(S(=O)(=O)Nc6nc(C)cc(C)n6)cc5)c5ccccc5nc34)cc2)n1 | 14.6 µM (inactive) | 23.4 µM (inactive) | 22.2 µM (inactive) | 19 µM (inactive) | 24.2 µM (inactive) | 17.6 µM (inactive) | 23 µM (inactive) | 27.2 µM (inactive) | 22.4 µM (inactive) | 19.4 µM (inactive) | 25.7 µM (inactive) |  | 32 µM (inactive) | 21.6 | 19.1 µM (inactive) |
| C1=C(c2ccccc2)C(OC2Oc3ccccc3C=C2c2ccccc2)Oc2ccccc21 (centres undefined) | > 100 µM (inactive) | 26.1 µM (inactive) | > 100 µM (inactive) | > 100 µM (inactive) | > 100 µM (inactive) | > 100 µM (inactive) | > 100 µM (inactive) | > 100 µM (inactive) | > 100 µM (inactive) | > 100 µM (inactive) |  | > 100 µM (inactive) | > 100 µM (inactive) | > 100 | > 100 µM (inactive) |
| Cc1ccc(NC(=O)CCc2nnc(S)[nH]2)cc1 | > 100 µM (inactive) | > 100 µM (inactive) | > 100 µM (inactive) | > 100 µM (inactive) | > 100 µM (inactive) |  | > 100 µM (inactive) | > 100 µM (inactive) | > 100 µM (inactive) | > 100 µM (inactive) | > 100 µM (inactive) |  | > 100 µM (inactive) | 76 | 17 µM (inactive) |
| Nc1cn(C2OC(CC(c3ccccc3)(c3ccccc3)c3ccccc3)C(O)C2O)c(=O)[nH]c1=O (centres undefined) | 29.3 µM (inactive) | > 100 µM (inactive) | 23.3 µM (inactive) | 24.5 µM (inactive) | 33.7 µM (inactive) | 19.1 µM (inactive) | 22.9 µM (inactive) | 26.4 µM (inactive) | 20.4 µM (inactive) | 23.4 µM (inactive) |  | 27 µM (inactive) | 18.3 µM (inactive) | 17.8 | 14.2 µM (inactive) |
| CN(C)CC(C)(C)C(/C=C/c1ccccc1)=N\Nc1ccccc1 | 1.89 µM (inactive) | 0.132 µM (active) | 0.367 µM (active) | 0.199 µM (active) | 0.378 µM (active) | 0.296 µM (active) | 10.3 µM (inactive) | 0.162 µM (active) | 0.451 µM (active) | 0.238 µM (active) | 1.06 µM (active) |  | 0.659 µM (active) | 0.309 | 0.0527 µM (active) |
| N#C/C(=C1\SC(/N=N/c2ccccc2)C(=O)N1c1ccccc1)c1nc2ccccc2[nH]1 (centres undefined) | > 100 µM (inactive) | > 100 µM (inactive) | 42.8 µM (inactive) | > 100 µM (inactive) | > 100 µM (inactive) | > 100 µM (inactive) | 78.2 µM (inactive) | 48.9 µM (inactive) | 26.1 µM (inactive) | 36.3 µM (inactive) | 66.7 µM (inactive) |  | 36.1 µM (inactive) | > 100 | > 100 µM (inactive) |
| Fc1ccc(/N=C2C=C/C(=N\c3ccc(F)cc3)c3ccccc3\2)cc1 | > 100 µM (inactive) | > 100 µM (inactive) | > 100 µM (inactive) | > 100 µM (inactive) | 33.9 µM (inactive) | > 100 µM (inactive) | > 100 µM (inactive) | > 100 µM (inactive) | > 100 µM (inactive) | > 100 µM (inactive) |  | > 100 µM (inactive) | 93.1 µM (inactive) | > 100 | 9.89 µM (inactive) |
| O=C(CC1(O)C(=O)Nc2ccc([N+](=O)[O-])cc21)c1ccc2ccccc2c1 (centres undefined) | > 100 µM (inactive) | > 100 µM (inactive) | > 100 µM (inactive) | > 100 µM (inactive) | > 100 µM (inactive) |  | > 100 µM (inactive) | > 100 µM (inactive) | > 100 µM (inactive) | > 100 µM (inactive) | > 100 µM (inactive) | > 100 µM (inactive) | > 100 µM (inactive) | > 100 | > 100 µM (inactive) |
| O=S(=O)(O)c1ccc([Se][Se]c2ccc(S(=O)(=O)O)cc2)cc1 | > 100 µM (inactive) | > 100 µM (inactive) | > 100 µM (inactive) | > 100 µM (inactive) | > 100 µM (inactive) | > 100 µM (inactive) | > 100 µM (inactive) | > 100 µM (inactive) | > 100 µM (inactive) | > 100 µM (inactive) | > 100 µM (inactive) | > 100 µM (inactive) | > 100 µM (inactive) | > 100 | > 100 µM (inactive) |
| CC1OC(=O)N2CCC=CC12 (centres undefined) | > 100 µM (inactive) | > 100 µM (inactive) | > 100 µM (inactive) | > 100 µM (inactive) | > 100 µM (inactive) | > 100 µM (inactive) | > 100 µM (inactive) | > 100 µM (inactive) | > 100 µM (inactive) | > 100 µM (inactive) | > 100 µM (inactive) |  | > 100 µM (inactive) | > 100 | > 100 µM (inactive) |
| COC(=O)C1C2C=CC(C2)N1[C@@H](C)c1ccccc1 (some centres undefined) | > 100 µM (inactive) | > 100 µM (inactive) | > 100 µM (inactive) | > 100 µM (inactive) | > 100 µM (inactive) | > 100 µM (inactive) | > 100 µM (inactive) | > 100 µM (inactive) |  | > 100 µM (inactive) |  | > 100 µM (inactive) | > 100 µM (inactive) | > 100 | > 100 µM (inactive) |
| O=[N+]([O-])c1nccn1CC(O)CN1CC1 (centres undefined) | > 100 µM (inactive) | 29.1 µM (inactive) | 24.7 µM (inactive) | 69.3 µM (inactive) | > 100 µM (inactive) |  | 83.9 µM (inactive) | > 100 µM (inactive) | 32 µM (inactive) | 46 µM (inactive) | 74.5 µM (inactive) |  | 27.6 µM (inactive) | 58.6 | 44.8 µM (inactive) |
